Results published in BindingDB's records for patent US20250313563 (The Broad Institute, 2025).
Where “and” joins values, the source holds several entries; their conditions need not be identical. Equal entries are not always repeated.

Assays:
[1] = target: Glycogen synthase kinase-3 beta (Homo sapiens, UniProt P49841); experiment: TR-FRET Assay
Method in brief: (§1)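 Signal is measured as TR-FRET between a terbium anti-phospho-Ser641 antibody and streptavidin-d2, added after an EDTA quench. Compounds are preincubated 30 min in assay buffer.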

[2] = target: Glycogen synthase kinase-3 alpha (Homo sapiens, UniProt P49840); experiment: TR-FRET Assay
Chain of Glycogen synthase kinase-3 alpha (P49840 whole entry): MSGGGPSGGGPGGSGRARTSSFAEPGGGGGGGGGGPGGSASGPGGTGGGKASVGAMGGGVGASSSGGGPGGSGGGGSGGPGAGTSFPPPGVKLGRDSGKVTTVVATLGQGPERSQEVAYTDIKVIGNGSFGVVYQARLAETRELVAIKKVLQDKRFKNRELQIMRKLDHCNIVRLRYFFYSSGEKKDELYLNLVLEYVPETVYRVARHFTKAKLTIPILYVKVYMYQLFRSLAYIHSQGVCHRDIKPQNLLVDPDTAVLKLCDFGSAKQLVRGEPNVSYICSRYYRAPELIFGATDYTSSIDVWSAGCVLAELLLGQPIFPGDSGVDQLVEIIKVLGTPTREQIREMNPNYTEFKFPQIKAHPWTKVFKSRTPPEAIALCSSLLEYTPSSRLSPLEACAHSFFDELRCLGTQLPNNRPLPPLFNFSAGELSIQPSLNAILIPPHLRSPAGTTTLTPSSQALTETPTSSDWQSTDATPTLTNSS
Method in brief: as §1

Chain of Glycogen synthase kinase-3 beta (P49841 whole entry): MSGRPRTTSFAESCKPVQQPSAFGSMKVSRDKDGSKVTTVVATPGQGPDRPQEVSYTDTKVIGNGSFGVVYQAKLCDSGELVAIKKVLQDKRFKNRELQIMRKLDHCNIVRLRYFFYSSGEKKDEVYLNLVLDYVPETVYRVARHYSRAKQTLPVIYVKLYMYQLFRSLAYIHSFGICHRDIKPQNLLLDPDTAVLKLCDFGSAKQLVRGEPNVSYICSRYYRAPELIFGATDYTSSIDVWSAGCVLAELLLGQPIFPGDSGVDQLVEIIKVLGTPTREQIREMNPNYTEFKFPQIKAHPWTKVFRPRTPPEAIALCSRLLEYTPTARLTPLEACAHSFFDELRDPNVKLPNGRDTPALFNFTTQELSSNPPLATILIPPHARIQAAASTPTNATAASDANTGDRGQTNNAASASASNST

IC50 [1] | IC50 [2] | SMILES
< 0.1 µM | < 0.1 µM | CCC1(c2cccc(-c3cn(C)nc3C)c2)C2=C(CC(C)(C)NC2=O)NC2N=NC(Cl)=C21 (stereo unspecified) [US20250313563, Compound 948768]
> 5 µM | > 5 µM | CC[C@]1(c2cccc(-c3cnn(C(F)F)c3)c2)C2=CN=NC2NC2=C1C(=O)NC(C)(C)C2 (stereo partly specified) [US20250313563, Compound 948816]
1 to 5 µM | 0.1 to 1 µM | CCC1(c2cccc(Br)c2)C2=CN=NC2NC2=C1C(=O)NC(C)C2 (stereo unspecified) [US20250313563, Compound 913225]
1 to 5 µM | 0.1 to 1 µM | CC[C@@]1(c2cccc(-c3cc[n+](O)cc3[S@@+](C)[O-])c2)C2=CN=NC2NC2=C1C(=O)CC(C)(C)C2 (stereo partly specified) [US20250313563, Compound 947571]
< 0.1 µM | < 0.1 µM | CCC1(c2cccc(-c3ccnc(OC)n3)c2)C2=CN=NC2NC2=C1C(=O)CC(C)(C)C2 (stereo unspecified) [US20250313563, Compound 948092]
0.1 to 1 µM and > 5 µM | < 0.1 µM and 0.1 to 1 µM | CC[C@@]1(c2cccc(-c3cnnc(C)c3)c2)C2=CN=NC2NC2=C1C(=O)NC(C)(C)C2 (stereo partly specified) [US20250313563, Compound 944074]
0.1 to 1 µM and 1 to 5 µM | < 0.1 µM and 0.1 to 1 µM | CC[C@@]1(c2cccc(-c3cc(C)nnc3C)c2)C2=CN=NC2NC2=C1C(=O)NC(C)(C)C2 (stereo partly specified) [US20250313563, Compound 949331]
> 5 µM | > 5 µM | CC[C@]1(c2cccc(-c3ccncc3F)c2)C2=C(CC(C)(C)NC2=O)NC2N=NC(Cl)=C21 (stereo partly specified) [US20250313563, Compound 949756]
< 0.1 µM | < 0.1 µM | CCC1(c2cccc(-c3cc(OC)ncc3F)c2)C2=CN=NC2NC2=C1C(=O)CC(C)(C)C2 (stereo unspecified) [US20250313563, Compound 932630]
0.1 to 1 µM | < 0.1 µM | CCC1(c2cccc(-c3cnn(C)c3C)c2)C2=C(CC(C)(C)NC2=O)NC2N=NC(C)=C21 (stereo unspecified) [US20250313563, Compound 944028]
1 to 5 µM | 0.1 to 1 µM | CC[C@@]1(c2cccc(-c3ccncc3)c2)C2=CN=NC2NC2=C1C(=O)CC(C)(C)C2 (stereo partly specified) [US20250313563, Compound 801413]
1 to 5 µM | < 0.1 µM | CC[C@]1(c2cccc(-c3ccnc(C)c3)c2)C2=CN=NC2NC2=C1C(=O)N[C@H](C)C2 (stereo partly specified) [US20250313563, Compound 926212]
0.1 to 1 µM and > 5 µM | < 0.1 µM and 1 to 5 µM | CC[C@@]1(c2cccc(-c3cnn4ccncc34)c2)C2=CN=NC2NC2=C1C(=O)NC(C)(C)C2 (stereo partly specified) [US20250313563, Compound 952565]
0.1 to 1 µM | < 0.1 µM | CCC1(c2cccc(N(C)C(=O)c3cnn(C)c3)c2)C2=CN=NC2NC2=C1C(=O)CC(C)(C)C2 (stereo unspecified) [US20250313563, Compound 912068]
> 5 µM | 1 to 5 µM | CC[C@@]1(c2cccc(N3C[C@@H](C)[C@H](C)C3)c2)C2=CN=NC2NC2=C1C(=O)CC(C)(C)C2 (stereo partly specified) [US20250313563, Compound 924543]
> 5 µM | 1 to 5 µM | CC[C@]1(c2cccc(-c3cn(C)nc3C)c2)C2=C(CC(C)(C)NC2=O)NC2N=NC(Cl)=C21 (stereo partly specified) [US20250313563, Compound 949329]
< 0.1 µM | < 0.1 µM | CC[C@@]1(c2cccc(-c3cc(C)ncc3F)c2)C2=C(CC(C)(C)NC2=O)NC2N=NC(C)=C21 (stereo partly specified) [US20250313563, Compound 949338]
< 0.1 µM | < 0.1 µM | CCC1(c2cccc(C(F)(F)F)c2)C2=C(CC(C)(C)CC2=O)NC2N=NC(C)=C21 (stereo unspecified) [US20250313563, Compound 801321]

More lines, now with the values behind:

SMILES | IC50 [1] | IC50 [2]
CC[C@@]1(c2cccc(Br)c2)C2=CN=NC2NC2=C1C(=O)C[C@H](C)C2 (stereo partly specified) [US20250313563, Compound 810487] | 0.1 to 1 µM | < 0.1 µM
CCC1(c2cccc(N(C)C(=O)C3CCN(C)CC3)c2)C2=CN=NC2NC2=C1C(=O)CC(C)(C)C2 (stereo unspecified) [US20250313563, Compound 912167] | 1 to 5 µM | 0.1 to 1 µM
CCC1(c2cccc(N(C)C3CC3)c2)C2=CN=NC2NC2=C1C(=O)CC(C)(C)C2 (stereo unspecified) [US20250313563, Compound 945466] | 1 to 5 µM | 0.1 to 1 µM
Cc1cnn(C)c1S(=O)(=O)N1CCC2(CC1)C1=C(N=NC1)NC1=C2C(=O)CC(C)(C)C1 [US20250313563, Compound 945658] | 1 to 5 µM | 0.1 to 1 µM
Cc1cc(S(=O)(=O)N2CCC3(CC2)C2=C(N=NC2)NC2=C3C(=O)CC(C)(C)C2)n(C)n1 [US20250313563, Compound 947608] | < 0.1 µM | < 0.1 µM
CC[C@@]1(c2cc(-c3ccncc3)ccc2F)C2=CN=NC2NC2=C1C(=O)CC(C)(C)C2 (stereo partly specified) [US20250313563, Compound 893324] | > 5 µM | 1 to 5 µM
CC[C@@]1(c2ccccc2)C2=CN=NC2NC2=C1C(=O)C[C@]1(CCN(C)C1=O)C2 (stereo partly specified) [US20250313563, Compound 949753] | > 5 µM | 1 to 5 µM
CCN(C(C)=O)c1cccc([C@]2(CC)C3=CN=NC3NC3=C2C(=O)CC(C)(C)C3)c1 (stereo partly specified) [US20250313563, Compound 909215] | 1 to 5 µM | 0.1 to 1 µM
CCn1nc(C)cc1S(=O)(=O)N1CCC2(CC1)C1=CN=NC1NC1=C2C(=O)CC(C)(C)C1 (stereo unspecified) [US20250313563, Compound 947609] | 0.1 to 1 µM | < 0.1 µM
CC[C@]1(c2cccc([C@H]3CCOC3)c2)C2=CN=NC2NC2=C1C(=O)CC(C)(C)C2 (stereo partly specified) [US20250313563, Compound 889556] | < 0.1 µM | < 0.1 µM
CC1(C)CC(=O)C2=C(C1)NC1=C(CN=N1)C21CCN(S(=O)(=O)c2ccc(OC(F)F)cc2)CC1 [US20250313563, Compound 947246] | < 0.1 µM and 0.1 to 1 µM | < 0.1 µM
C[C@@H]1CC(=O)C2=C(C1)NC1=C(CN=N1)C21CCOCC1 [US20250313563, Compound 912079] | 0.1 to 1 µM | 0.1 to 1 µM
CC1OCCC12C1=C(N=NC1)NC1=C2C(=O)CC(C)(C)C1 (stereo unspecified) [US20250313563, Compound 911958] | > 5 µM | > 5 µM
Cc1ccc(S(=O)(=O)N2CCC3(CC2)C2=C(N=NC2)NC2=C3C(=O)CC(C)(C)C2)cn1 [US20250313563, Compound 947482] | < 0.1 µM | < 0.1 µM
CCC1(c2cc(N(C)C(C)=O)ccc2F)C2=CN=NC2NC2=C1C(=O)CC(C)(C)C2 (stereo unspecified) [US20250313563, Compound 913124] | 0.1 to 1 µM | 0.1 to 1 µM
CC1(C)CC(=O)C2=C(NC3=C(CN=N3)C23CCN(S(=O)(=O)c2cccc(C(F)(F)F)c2)CC3)[C@@H]1F [US20250313563, Compound 951703] | < 0.1 µM and 1 to 5 µM | < 0.1 µM and 0.1 to 1 µM
CC1(C)CC(=O)C2=C(C1)NC1=C(CN=N1)C21COC2(CN(C(=O)OC(C)(C)C)C2)C1 (stereo unspecified) [US20250313563, Compound 911083] | 1 to 5 µM | 0.1 to 1 µM
COc1cccc(S(=O)(=O)N2CCCC3(CC2)C2=CN=NC2NC2=C3C(=O)CC(C)(C)C2)c1 (stereo unspecified) [US20250313563, Compound 917140] | 0.1 to 1 µM | < 0.1 µM
CC1(C)CC(=O)C2=C(C1)NC1=C(CN=N1)C21CC(C)(C)C1 [US20250313563, Compound 883864] | 0.1 to 1 µM | < 0.1 µM
CC1(C)CC(=O)C2=C(C1)NC1=C(CN=N1)C21CCN(S(=O)(=O)c2cccc(C(F)(F)F)c2)CC1 [US20250313563, Compound 947244] | < 0.1 µM | < 0.1 µM
